Key:
Experiment in all cases: Weed control test, foliage treatment (Test Example 1, Table 7)
[1] = system: TRZAW (Tritium aestivum L., wheat); conditions: in vivo
Description: (§1) Seeds of rice, wheat, soy bean, barley, corn, common sorgum, barnyard grass, large crabgrass, creek grass, green foxtail and fall panicum were placed in sandy loam in 600 cm^2 pots and covered with soil. After keeping the pots in a greenhouse at 20 to 30° C. allowing growth of the plants to the 3-leaf stage of the barnyard grass, 2,000 l/ha of an emulsion obtained by diluting with water a mixture of 1 part by weight of a test compound, 5 parts by weight of acetone and 1 part by weight of an emulsifying agent (Tween 80, Junsei) was applied to the surface of the foliage of the plants. The plant damage at 10 days and 20 days after the foliage treatment was visually evaluated from the level of 1 to 100% by comparison with the untreated control: […]

[2] = system: HORVU (Hordeum vulgare L., barley); conditions: in vivo
Description: as §1

[3] = system: GLXMA (Glycine max(L.) MERR, soy bean); conditions: in vivo
Description: as §1

[4] = system: ORYSA (Oryza sativa cv. Dongjin, rice); conditions: in vivo
Description: as §1

[5] = system: DIGSA (Digitaria Sanguinalis (L.) SCOP, large crabgrass); assay type: in vivo; conditions: Digitaria sanguinalis, foliar, read-out: Plant damage (herbicidal activity), visually evaluated, DIGSA; for pest or weed control at 25 g/ha: 0.025 kg/ha; for pest or weed control at 100 g/ha: 0.1 kg/ha; for pest or weed control at 200 g/ha: 0.2 kg/ha
Description: as §1

[6] = system: ECHOG (Echinoch crus-galli Beauv. var. caudata Kitagawa, barnyard grass); assay type: in vivo; conditions: Echinochloa crus-galli, foliar, 3-leaf stage, read-out: Plant damage (herbicidal activity), visually evaluated, ECHOG; for pest or weed control at 25 g/ha: 0.025 kg/ha; for pest or weed control at 100 g/ha: 0.1 kg/ha; for pest or weed control at 200 g/ha: 0.2 kg/ha
Description: as §1

[7] = system: PANDI (Panium dichotomiflorum Michx, fall panicum); assay type: in vivo; conditions: Panicum dichotomiflorum, foliar, read-out: Plant damage (herbicidal activity), visually evaluated, PANDI; for pest or weed control at 25 g/ha: 0.025 kg/ha; for pest or weed control at 100 g/ha: 0.1 kg/ha; for pest or weed control at 200 g/ha: 0.2 kg/ha
Description: as §1

[8] = system: ZEAMX (Zea mays L., corn); assay type: in vivo; conditions: Zea mays, foliar, read-out: Plant damage (herbicidal activity), visually evaluated, ZEAMX; for plant injury at 25 g/ha: 0.025 kg/ha; for plant injury at 100 g/ha: 0.1 kg/ha; for plant injury at 200 g/ha: 0.2 kg/ha
Description: as §1

[9] = system: ARTHIS (Arthraxon hispidus (Thunb.) Makino, creek grass); assay type: in vivo; conditions: Arthraxon hispidus, foliar, read-out: Plant damage (herbicidal activity), visually evaluated, ARTHIS; for pest or weed control at 25 g/ha: 0.025 kg/ha; for pest or weed control at 100 g/ha: 0.1 kg/ha; for pest or weed control at 200 g/ha: 0.2 kg/ha
Description: as §1

[10] = system: SORBI (Andropogon sorghum, common sorgum); assay type: in vivo; conditions: Sorghum bicolor, foliar, read-out: Plant damage (herbicidal activity), visually evaluated, SORBI; for pest or weed control at 25 g/ha: 0.025 kg/ha; for pest or weed control at 100 g/ha: 0.1 kg/ha; for pest or weed control at 200 g/ha: 0.2 kg/ha
Description: as §1

[11] = system: SETVIR (Setaria viridis (L.) Beauv, green foxtail); assay type: in vivo; conditions: Setaria viridis, foliar, read-out: Plant damage (herbicidal activity), visually evaluated, SETVIR; for pest or weed control at 25 g/ha: 0.025 kg/ha; for pest or weed control at 100 g/ha: 0.1 kg/ha; for pest or weed control at 200 g/ha: 0.2 kg/ha
Description: as §1

Row | Compound | Plant damage (herbicidal activity), visually evaluated, TRZAW [1] [%] | Plant damage (herbicidal activity), visually evaluated, HORVU [2] [%] | Plant damage (herbicidal activity), visually evaluated, GLXMA [3] [%] | Plant damage (herbicidal activity), visually evaluated, ORYSA [4] [%] | pest or weed control at 25 g/ha [5] [%] | pest or weed control at 100 g/ha [5] [%] | pest or weed control at 200 g/ha [5] [%] | pest or weed control at 25 g/ha [6] [%] | pest or weed control at 100 g/ha [6] [%] | pest or weed control at 200 g/ha [6] [%] | pest or weed control at 25 g/ha [7] [%] | pest or weed control at 100 g/ha [7] [%] | pest or weed control at 200 g/ha [7] [%] | plant injury at 25 g/ha [8] [%] | plant injury at 100 g/ha [8] [%] | plant injury at 200 g/ha [8] [%] | pest or weed control at 25 g/ha [9] [%] | pest or weed control at 100 g/ha [9] [%] | pest or weed control at 200 g/ha [9] [%] | pest or weed control at 25 g/ha [10] [%] | other results
1 | C[C@@H](Oc1ccc(Oc2ccc(C#N)cc2F)cc1)C(=O)Nc1cnccn1 [Example 35, (R)-2-[4-(4-cyano-2-fluorophenoxy)phenoxy]propionic acid-N-(2-pyrazinyl)amide] | 0 | 0 | 0 | 0 | 10 | 40 | 60 | 0 | 10 | 30 | 0 | 0 | 30 | 0 | 20 | 30 | 0 | 10 | 30 | 20 | pest or weed control at 100 g/ha [10]: 65%; pest or weed control at 200 g/ha [10]: 80%; pest or weed control at 25 g/ha [11]: 0%; pest or weed control at 100 g/ha [11]: 30%; pest or weed control at 200 g/ha [11]: 50%
2 | C[C@@H](Oc1ccc(OC(F)=Cc2ccccc2)cc1)C(=O)N(C)c1ccccc1F [Example 37, (R)-2-[4-(1-fluoro-2-phenylvinyloxy)phenoxy]propionic acid-N-(2-fluorophenyl)-N-methyl amide] | 0 | 0 | 0 | 0 | 0 | 20 | 90 | 20 | 70 | 90 | 0 | 0 | 10 | 0 | 0 | 30 | 0 | 0 | 10 | 0 | pest or weed control at 100 g/ha [10]: 20%; pest or weed control at 200 g/ha [10]: 20%; pest or weed control at 25 g/ha [11]: 0%; pest or weed control at 100 g/ha [11]: 0%; pest or weed control at 200 g/ha [11]: 20%
3 | C[C@@H](Oc1ccc(C(F)=C(c2ccc(F)cc2)C(F)(F)F)cc1)C(=O)Nc1ccccc1F [Example 40, (R)-2-[4-(1,3,3,3-tetrafluoro-2-(4-fluorophenyl)prop-1-enyl)phenoxy]propionic acid-N-(2-fluorophenyl)amide] | 0 | 0 | 0 | 0 | 70 | 90 | 90 | 20 | 70 | 90 | 0 | 0 | 10 | 90 | 100 | 100 | 0 | 0 | 10 | 0 | pest or weed control at 100 g/ha [10]: 20%; pest or weed control at 200 g/ha [10]: 50%; pest or weed control at 25 g/ha [11]: 0%; pest or weed control at 100 g/ha [11]: 0%; pest or weed control at 200 g/ha [11]: 20%
4 | Cc1ccc(C=C(F)Oc2ccc(O[C@H](C)C(=O)Nc3ccccc3F)cc2)cc1 [Example 41, (R)-2-[4-(1-fluoro-2-(4-methylphenyl)vinyloxy)phenoxy]propionic acid-N-(2-fluorophenyl)amide] | 0 | 0 | 0 | 0 | 0 | 0 | 50 | 0 | 0 | 20 | 20 | 70 | 70 | 0 | 0 | 20 | 0 | 0 | 20 | 0 | pest or weed control at 100 g/ha [10]: 0%; pest or weed control at 200 g/ha [10]: 0%; pest or weed control at 25 g/ha [11]: 0%; pest or weed control at 100 g/ha [11]: 20%; pest or weed control at 200 g/ha [11]: 70%
